Read-outs that look alike come from different tables or passages of the source.
Legend:
MOLM-13 cells = assay: Proliferation assay, MOLM-13 (CellTiter-Glo, 7 days); assay type: cell-based, human
Method in brief: (§1)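 Cells were seeded at line-specific low densities for linear growth, exposed to 3.16-fold serial compound dilutions at 0.1% DMSO, and incubated 7 days at 37 °C, 5% CO2. Viability was read by CellTiter-Glo 2.0 luminescence; IC50 came from one-site fits of % inhibition, normalized between DMSO-treated cells (100%) and a day-0 plate (0%).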

MV4;11 cells = assay: Proliferation assay, MV4;11 (CellTiter-Glo, 7 days); assay type: cell-based, human; details: read-out: MV-4-11 IC50
Method in brief: as §1

hERG = hERG (Homo sapiens (Human), UniProt Q12809); assay: hERG assay 1 (standard), SyncroPatch 384PE; assay type: cell-based; details: CHO cells, room temperature, up to 40 uM
Chain of hERG (Q12809 whole entry): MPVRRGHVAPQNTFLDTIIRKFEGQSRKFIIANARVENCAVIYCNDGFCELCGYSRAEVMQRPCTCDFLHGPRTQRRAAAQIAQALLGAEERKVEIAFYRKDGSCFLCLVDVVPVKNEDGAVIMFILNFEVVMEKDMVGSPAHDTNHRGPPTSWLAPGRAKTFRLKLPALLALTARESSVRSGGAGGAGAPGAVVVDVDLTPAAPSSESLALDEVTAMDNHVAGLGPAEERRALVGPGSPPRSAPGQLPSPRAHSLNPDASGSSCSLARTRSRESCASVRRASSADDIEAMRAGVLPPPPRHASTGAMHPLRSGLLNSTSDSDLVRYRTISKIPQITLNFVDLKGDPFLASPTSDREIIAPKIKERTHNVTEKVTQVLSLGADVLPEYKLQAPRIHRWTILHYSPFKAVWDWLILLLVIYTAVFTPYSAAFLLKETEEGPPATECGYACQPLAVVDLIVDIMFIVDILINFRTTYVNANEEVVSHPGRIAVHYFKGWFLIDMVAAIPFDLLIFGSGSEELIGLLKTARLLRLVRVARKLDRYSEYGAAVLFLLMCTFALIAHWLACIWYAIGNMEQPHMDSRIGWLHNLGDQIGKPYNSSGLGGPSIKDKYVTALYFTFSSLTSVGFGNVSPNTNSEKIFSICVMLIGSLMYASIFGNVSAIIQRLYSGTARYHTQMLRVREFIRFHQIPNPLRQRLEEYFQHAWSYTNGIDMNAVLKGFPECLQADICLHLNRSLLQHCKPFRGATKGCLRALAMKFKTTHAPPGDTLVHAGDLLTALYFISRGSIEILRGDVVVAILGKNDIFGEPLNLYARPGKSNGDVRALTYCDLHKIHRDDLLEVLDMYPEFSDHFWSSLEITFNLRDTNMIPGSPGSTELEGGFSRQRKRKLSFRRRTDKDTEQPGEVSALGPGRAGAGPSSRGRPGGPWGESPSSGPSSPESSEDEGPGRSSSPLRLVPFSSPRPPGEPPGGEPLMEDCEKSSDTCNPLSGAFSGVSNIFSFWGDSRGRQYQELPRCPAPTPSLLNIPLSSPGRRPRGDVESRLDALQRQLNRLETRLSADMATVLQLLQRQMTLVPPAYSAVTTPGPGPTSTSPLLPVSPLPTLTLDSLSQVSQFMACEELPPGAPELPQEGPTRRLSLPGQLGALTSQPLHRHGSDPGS
Method in brief: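 Automated patch clamp on hERG-expressing CHO-K1 cells at room temperature, +60/−40 mV protocol every 15 s. Six-point cumulative concentrations 139 nM to 40 uM (0.33% DMSO final); IC50 from one-site fit of % inhibition. Wells required ≥30 MegaOhm seal, current >0.2 nA, Z prime >0.4.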

[1] = Human liver microsomes (HLMs) intrinsic clearance assay; assay type: in vitro ADME; details: for microsomal CLint at 1 µM: pH 7.4, HLM CLint

Row | Compound | IC50 (MOLM-13 cells; Homo sapiens, MOLM-13, 168 h) | IC50 (MV4;11 cells; Homo sapiens, MV4-11, 168 h) | IC50 (hERG) | microsomal CLint at 1 µM ([1]; human, microsomes) | IC50 (MOLM-13 cells) | IC50 (MV4;11 cells) | HLM CLint ([1]; 1 mg/mL HLM, NADPH) | HLM CLint ([1]; human, microsomes, 1 µM, pH 7.4)
1 | CCN(C(=O)c1cc(F)ccc1-n1cc(C(=O)C2CCN(C(=O)[C@H]3N[C@@H]4CC[C@H]3C4)CC2)c2ccncc21)C(C)C [Example 31, 2-(3-(1-((1R,3S,4S)-2-Azabicyclo[2.2.1]heptane-3-carbonyl)piperidine-4-carbonyl)-1H-pyrrolo[2,3-c]pyridin-1-yl)-N-ethyl-5-fluoro-N-isopropylbenzamide] | 0.038 µM | 0.032 µM | > 40 µM | 23 µL/min/mg | – | – | – | –
2 | COCCN(C)CCC[C@H](C(C)C)N1CCC(C(=O)c2cn(-c3ccc(F)cc3C(=O)N(C(C)C)C(C)C)c3cnccc23)CC1 (racemic) [Example 23, rac-(R)-5-Fluoro-N,N-diisopropyl-2-(3-(1-(6-((2-methoxyethyl)(methyl)amino)-2-methylhexan-3-yl)piperidine-4-carbonyl)-1H-pyrrolo[2,3-c]pyridin-1-yl)benzamide] | 0.037 µM | 0.02 µM | 30.6 µM | 156 µL/min/mg | – | – | – | –
3 | CC(C)N(C(=O)c1cc(F)ccc1-n1cc(C(=O)C2CCN(C(=O)[C@H]3NC4CCC3CC4)CC2)c2ccncc21)C(C)C [Example 20, (S)-2-(3-(1-(2-Azabicyclo[2.2.2]octane-3-carbonyl)piperidine-4-carbonyl)-1H-pyrrolo[2,3-c]pyridin-1-yl)-5-fluoro-N,N-diisopropylbenzamide] | 0.04 µM | 0.025 µM | > 40 µM | 27 µL/min/mg | – | – | – | –
4 | CC(C)c1ncccc1-c1cc(F)ccc1-n1cc(C(=O)C2CCN(C(=O)[C@H]3N[C@@H]4CC[C@H]3C4)CC2)c2ccncc21 [Example 38, (1-((1R,3S,4S)-2-Azabicyclo[2.2.1]heptane-3-carbonyl)piperidin-4-yl)(1-(4-fluoro-2-(2-isopropylpyridin-3-yl)phenyl)-1H-pyrrolo[2,3-c]pyridin-3-yl)methanone] | 0.027 µM | 0.024 µM | > 40 µM | 131 µL/min/mg | – | – | – | –
5 | C[C@@H]1CCC[C@H](C)N1C(=O)c1cc(F)ccc1-n1cc(C(=O)C2CCN(C(=O)[C@H]3N[C@@H]4CC[C@H]3C4)CC2)c2ccncc21 [Example 33, (1-((1R,3S,4S)-2-Azabicyclo[2.2.1]heptane-3-carbonyl)piperidin-4-yl)(1-(2-((2R,6S)-2,6-dimethylpiperidine-1-carbonyl)-4-fluorophenyl)-1H-pyrrolo[2,3-c]pyridin-3-yl)methanone] | 0.111 µM | 0.103 µM | > 40 µM | 50 µL/min/mg | – | – | – | –
6 | CCN(C(=O)c1cc(F)ccc1-n1c(C)c(C(=O)C2CCN(C(=O)[C@@H]3CCC4(CC4)N3)CC2)c2ccncc21)C(C)C (single isomer, unassigned) [Example 49-2] | – | – | > 38 µM | – | 0.08 µM | 0.034 µM | 127 µL/min/mg | –
7 | Cc1c(C(=O)C2CCN(C(=O)[C@H]3NC[C@@H]4C[C@@H]43)CC2)c2ccncc2n1-c1ccc(F)cc1C(=O)N(C(C)C)[C@H](C)C(F)(F)F (single isomer, unassigned) [Example 57-1] | – | 0.051 µM | > 38.5 µM | 84 µL/min/mg | 0.093 µM | – | – | –
8 | CC(C)N(C(=O)c1cc(F)ccc1-n1cc(C(=O)C2CN(C(=O)[C@H]3N[C@@H]4CC[C@H]3C4)C2)c2ccncc21)C(C)C [Example 5, 2-(3-(1-((1R,3S,4S)-2-Azabicyclo[2.2.1]heptane-3-carbonyl)azetidine-3-carbonyl)-1H-pyrrolo[2,3-c]pyridin-1-yl)-5-fluoro-N,N-diisopropylbenzamide] | 0.074 µM | 0.085 µM | > 40 µM | 35 µL/min/mg | – | – | – | –
9 | CC(C)N(C(=O)c1cc(F)ccc1-n1cc(C(=O)[C@@H]2CCN(C[C@H]3CC[C@H](NS(C)(=O)=O)CC3)C2)c2ccncc21)C(C)C [Example 4, 5-Fluoro-N,N-diisopropyl-2-(3-((R)-1-(((1r,4R)-4-(methylsulfonamido)-cyclohexyl)methyl)pyrrolidine-3-carbonyl)-1H-pyrrolo[2,3-c]pyridin-1-yl)benzamide] | 0.156 µM | 0.132 µM | 6.3 µM | 171 µL/min/mg | – | – | – | –
10 | Cc1c(C(=O)C2CCN(C(=O)[C@H]3NC[C@@H]4C[C@@H]43)CC2)c2ccncc2n1-c1ccc(F)cc1C(=O)N(C(C)C)C(C)C (single isomer, unassigned) [Example 55-1] | – | – | > 40 µM | 125 µL/min/mg | 1.26 µM | 1.73 µM | – | –
11 | CC(C)c1cnccc1-c1cc(F)ccc1-n1cc(C(=O)C2CN(C(=O)[C@H]3N[C@@H]4CC[C@H]3C4)C2)c2ccncc21.O=CO [Example 11, (1-((1R,3S,4S)-2-Azabicyclo[2.2.1]heptane-3-carbonyl)azetidin-3-yl)(1-(4-fluoro-2-(3-isopropylpyridin-4-yl)phenyl)-1H-pyrrolo[2,3-c]pyridin-3-yl)methanone 1·formic acid] | 0.05 µM | 0.031 µM | > 40 µM | > 294 µL/min/mg | – | – | – | –
12 | CC(C)N(C(=O)c1cc(F)ccc1-n1cc(C(=O)C2CN(C(=O)[C@H]3N[C@@H]4CC[C@H]3C4)C2)c2ccnc(F)c21)C(C)C [Example 15, 2-(3-(1-((1R,3S,4S)-2-Azabicyclo[2.2.1]heptane-3-carbonyl)azetidine-3-carbonyl)-7-fluoro-1H-pyrrolo[2,3-c]pyridin-1-yl)-5-fluoro-N,N-diisopropylbenzamide] | 0.098 µM | 0.053 µM | 24.9 µM | 132 µL/min/mg | – | – | – | –
13 | CCN(C(=O)c1cc(F)ccc1-n1c(C)c(C(=O)[C@@H]2CCN(C(=O)[C@@H]3CCC4(CC4)N3)[C@@H](C)C2)c2ccncc21)C(C)C (single isomer, unassigned) [Example 52-2, N-Ethyl-5-fluoro-N-isopropyl-2-(2-methyl-3-((2R*,4S*)-2-methyl-1-((S)-4-azaspiro[2.4]heptane-5-carbonyl)piperidine-4-carbonyl)-1H-pyrrolo[2,3-c]pyridin-1-yl)benzamide] | – | – | 14.2 µM | – | 0.048 µM | 0.056 µM | 150 µL/min/mg | –
14 | Cc1c(C(=O)[C@@H]2CCN(C(=O)[C@H]3NC[C@@H]4C[C@@H]43)[C@@H](C)C2)c2ccncc2n1-c1ccc(F)cc1C(=O)N(CC(F)(F)F)C(C)C (single isomer, unassigned) [Example 53-3, 2-(3-((2R*,4S*)-1-((1S,2S,5R)-3-Azabicyclo[3.1.0]hexane-2-carbonyl)-2-methylpiperidine-4-carbonyl)-2-methyl-1H-pyrrolo[2,3-c]pyridin-1-yl)-5-fluoro-N-isopropyl-N-(2,2,2-trifluoroethyl)benzamide] | – | – | 31.4 µM | – | 0.015 µM | 0.013 µM | – | 155 µL/min/mg
15 | Cc1c(C(=O)C2CCN(C(=O)[C@@H]3CCC4(CC4)N3)CC2)c2ccncc2n1-c1ccc(F)cc1C(=O)N1[C@H](C)COC[C@H]1C (single isomer, unassigned) [Example 58-2] | – | 0.035 µM | > 40 µM | – | 0.037 µM | – | 85 µL/min/mg | –
16 | CC(C)N(C(=O)c1cc(F)ccc1-n1cc(C(=O)C2CN(C(=O)[C@H]3N[C@H]4C[C@@H]3[C@@H](F)C4)C2)c2ccncc21)C(C)C [Example 7, 5-Fluoro-2-(3-(1-((1S,3S,4S,5S)-5-fluoro-2-azabicyclo[2.2.1]heptane-3-carbonyl)azetidine-3-carbonyl)-1H-pyrrolo[2,3-c]pyridin-1-yl)-N,N-diisopropylbenzamide] | 0.063 µM | 0.072 µM | > 40 µM | 148 µL/min/mg | – | – | – | –
17 | CC(C)N(C(=O)c1cc(F)ccc1-n1cc(C(=O)C2CCN(C(=O)[C@H]3N[C@@H]4CC[C@H]3C4)CC2)c2c(F)cncc21)C(C)C.O=CO [Example 44, 2-(3-(1-((1R,3S,4S)-2-Azabicyclo[2.2.1]heptane-3-carbonyl)piperidine-4-carbonyl)-4-fluoro-1H-pyrrolo[2,3-c]pyridin-1-yl)-5-fluoro-N,N-diisopropylbenzamide 1·formic acid] | 0.073 µM | 0.065 µM | > 40 µM | 17 µL/min/mg | – | – | – | –
18 | CC(C)(F)c1ncccc1-c1cc(F)ccc1-n1cc(C(=O)C2CN(C(=O)[C@H]3N[C@@H]4CC[C@H]3C4)C2)c2ccncc21 [Example 13, (1-((1R,3S,4S)-2-Azabicyclo[2.2.1]heptane-3-carbonyl)azetidin-3-yl)(1-(4-fluoro-2-(2-(2-fluoropropan-2-yl)pyridin-3-yl)phenyl)-1H-pyrrolo[2,3-c]pyridin-3-yl)methanone] | 0.051 µM | 0.034 µM | 35.8 µM | 119 µL/min/mg | – | – | – | –
19 | CC(C)c1ncccc1-c1cc(F)ccc1-n1cc(C(=O)C2CN(C(=O)[C@H]3N[C@@H]4CC[C@H]3C4)C2)c2ccncc21 [Example 10, (1-((1R,3S,4S)-2-Azabicyclo[2.2.1]heptane-3-carbonyl)azetidin-3-yl)(1-(4-fluoro-2-(2-isopropylpyridin-3-yl)phenyl)-1H-pyrrolo[2,3-c]pyridin-3-yl)methanone] | 0.023 µM | 0.024 µM | > 40 µM | 182 µL/min/mg | – | – | – | –

Reference: patent US20240335431A1, “1-H-PYRROLO[2,3-c]PYRIDINE COMPOUNDS” (Acerta Pharma B.V., priority 2023, published 2024)
